Source: US10259810B2, “N-sulfonylated pyrazolo[3,4-b]pyridin-6-carboxamides and method of use” (AbbVie S.à.r.l., priority 2015, dated 2019)

Columns and labels:
Format in all cases: cell-based
[1] = target: T1, CFTR ΔF508 (Homo sapiens, UniProt P13569, DEL508-508); assay: Chronic TECC assay, primary bronchial epithelial cells of CF patients homozygous for CFTR ΔF508 (corrector, co-corrector and potentiator); conditions: chronic TECC, AUC = full area under the curve upon forskolin stimulation; for EC50: read-out: EC50 (nM) (AUC**); for % Activity at 1 μM (AUC**): test compound at 1 μM
T1 construct: bronchial epithelial cells isolated from CF patients homozygous for the CFTR ΔF508 mutation; McGill University; Asterand; University of North Carolina hAEC-CF; host or cells: primary human bronchial epithelial cells from CF patients homozygous for ΔF508, differentiated at air-liquid interface
T1 sequence (P13569 with tags, fused parts or gaps DEL508-508): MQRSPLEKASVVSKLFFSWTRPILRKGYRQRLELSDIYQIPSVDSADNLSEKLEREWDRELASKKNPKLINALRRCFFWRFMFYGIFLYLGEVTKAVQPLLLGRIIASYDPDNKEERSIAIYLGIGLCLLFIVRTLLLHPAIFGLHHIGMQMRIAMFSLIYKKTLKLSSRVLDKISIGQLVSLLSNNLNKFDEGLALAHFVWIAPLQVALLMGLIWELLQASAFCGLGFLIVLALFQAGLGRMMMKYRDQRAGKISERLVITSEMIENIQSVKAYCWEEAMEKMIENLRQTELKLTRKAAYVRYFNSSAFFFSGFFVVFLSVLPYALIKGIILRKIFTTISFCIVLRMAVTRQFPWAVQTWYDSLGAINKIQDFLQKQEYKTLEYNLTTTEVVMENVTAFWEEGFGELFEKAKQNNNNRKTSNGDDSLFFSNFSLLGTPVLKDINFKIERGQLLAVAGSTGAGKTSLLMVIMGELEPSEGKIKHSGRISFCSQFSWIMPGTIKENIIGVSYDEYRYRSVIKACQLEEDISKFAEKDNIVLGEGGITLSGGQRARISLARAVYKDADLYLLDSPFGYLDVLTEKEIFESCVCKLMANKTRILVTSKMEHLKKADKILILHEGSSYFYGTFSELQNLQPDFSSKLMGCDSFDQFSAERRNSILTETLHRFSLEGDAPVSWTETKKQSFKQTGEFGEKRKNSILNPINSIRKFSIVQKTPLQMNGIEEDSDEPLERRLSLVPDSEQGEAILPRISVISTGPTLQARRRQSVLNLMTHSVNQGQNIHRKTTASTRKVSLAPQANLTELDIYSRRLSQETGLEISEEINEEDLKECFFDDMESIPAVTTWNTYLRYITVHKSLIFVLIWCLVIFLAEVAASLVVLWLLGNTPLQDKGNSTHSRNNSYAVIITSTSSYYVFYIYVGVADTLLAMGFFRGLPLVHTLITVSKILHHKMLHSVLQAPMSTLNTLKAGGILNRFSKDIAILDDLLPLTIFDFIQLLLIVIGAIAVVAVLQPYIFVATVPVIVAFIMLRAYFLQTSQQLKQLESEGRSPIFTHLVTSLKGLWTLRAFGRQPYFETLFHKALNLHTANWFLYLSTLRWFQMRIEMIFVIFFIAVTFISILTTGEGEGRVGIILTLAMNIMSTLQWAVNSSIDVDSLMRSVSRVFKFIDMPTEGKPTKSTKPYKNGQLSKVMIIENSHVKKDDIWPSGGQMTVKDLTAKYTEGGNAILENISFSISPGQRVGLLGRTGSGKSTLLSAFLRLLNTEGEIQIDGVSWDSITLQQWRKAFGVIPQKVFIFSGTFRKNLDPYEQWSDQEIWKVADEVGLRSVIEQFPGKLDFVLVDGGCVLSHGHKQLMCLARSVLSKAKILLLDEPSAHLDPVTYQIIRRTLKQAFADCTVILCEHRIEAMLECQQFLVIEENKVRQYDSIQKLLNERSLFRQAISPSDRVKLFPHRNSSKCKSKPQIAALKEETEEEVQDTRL
Outline: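 Primary bronchial epithelial cells from ΔF508-homozygous CF patients on collagen IV-coated Transwells were chronically treated with test compound plus corrector and potentiator, which were re-added before recording. Ieq was derived from PD and Rt in NaCl-Ringer, pH 7.4, at 37° C, with apical amiloride and bilateral forskolin, recorded every 2 min over 20 min. Ieq increase was normalized to controls, and EC50 was taken from per-well concentrations.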

[2] = target: T2, ΔF508-CFTR (Homo sapiens, UniProt P13569, DEL508-508); assay: CFTR cell surface levels using HRP-tagged ΔF508-CFTR expressing CFBE cells, intrinsic corrector capacity; set-up: % Activation: concentration or dose not given beside the values; conditions: HRP-tagged ΔF508-CFTR expressing CFBE41o- cells, compound alone (intrinsic corrector capacity), 20 hours at 33° C.; for EC50: read-out: EC50
T2 construct: host or cells: CFBE41o-, doxycycline-inducible
T2 sequence (P13569 with tags, fused parts or gaps DEL508-508): as above
Outline: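 Read-out: chemiluminescent HRP activity of ECL4-HRP-tagged ΔF508-CFTR at the cell surface, 15 min substrate in dark. Normalized as 100×(sample−DMSO)/(positive control−DMSO).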

[3] = target: T2, ΔF508-CFTR; assay: CFTR cell surface levels using HRP-tagged ΔF508-CFTR expressing CFBE cells, in the presence of a co-corrector; conditions: HRP-tagged ΔF508-CFTR CFBE cells, in the presence of 3 μM co-corrector; for EC50: read-out: EC50
Outline: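 Chemiluminescent read-out of surface HRP (15 min, dark) after PBS washes. Activity is normalized as 100×(sample−DMSO)/(3 μM co-corrector alone−DMSO).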

Structure (SMILES)	EC50 [1] [nM]	% Activity at 1 μM (AUC**) [1] [%]	% Activation [2] [%]	EC50 [2] [nM]	% Activation [3] [%]	EC50 [3] [nM]
CC(=O)N1CCC(F)(COc2cc(C(=O)NS(C)(=O)=O)nc3c2c(C2CCC2)nn3-c2ccccc2)CC1 [Compound 274, 4-[(1-acetyl-4-fluoropiperidin-4-yl)methoxy]-3-cyclobutyl-N-(methanesulfonyl)-1-phenyl-1H-pyrazolo[3,4-b]pyridine-6-carboxamide]	> 300	224.99	159.05	842	300	398
COCC1CCN(c2cc(C(=O)NS(C)(=O)=O)nc3c2c(C(C)C)nn3-c2ccnc(N3CCOCC3)n2)CC1 [Compound 279, N-(methanesulfonyl)-4-[4-(methoxymethyl)piperidin-1-yl]-1-[2-(morpholin-4-yl)pyrimidin-4-yl]-3-(propan-2-yl)-1H-pyrazolo[3,4-b]pyridine-6-carboxamide]	109	–	308.4	534	530.6	227
COCC1CCN(c2cc(C(=O)NS(=O)(=O)CCCN3CCCC3)nc3c2c(C(C)C)nn3-c2ccc(F)cc2)CC1 [Compound 291, 1-(4-fluorophenyl)-4-[4-(methoxymethyl)piperidin-1-yl]-3-(propan-2-yl)-N-[3-(pyrrolidin-1-yl)propane-1-sulfonyl]-1H-pyrazolo[3,4-b]pyridine-6-carboxamide]	–	255.92	219.5	3330	420.07	591
COC(C)(C)C1CCN(c2cc(C(=O)NS(C)(=O)=O)nc3c2c(C2CCC2)nn3-c2ccccc2)CC1 [Compound 294, 3-cyclobutyl-N-(methanesulfonyl)-4-[4-(2-methoxypropan-2-yl)piperidin-1-yl]-1-phenyl-1H-pyrazolo[3,4-b]pyridine-6-carboxamide]	21	–	319.6	62.2	548.45	22.1
COC(=O)N1CCC(COc2cc(C(=O)NS(C)(=O)=O)nc3c2c(C2CCC2)nn3-c2ccccc2)CC1 [Compound 297, methyl 4-[({3-cyclobutyl-6-[(methanesulfonyl)carbamoyl]-1-phenyl-1H-pyrazolo[3,4-b]pyridin-4-yl}oxy)methyl]piperidine-1-carboxylate]	≤ 30	470.97	193.9	99.2	423.43	77.2
CC(C)c1nn(-c2ccc(F)cc2)c2nc(C(=O)NS(C)(=O)=O)cc(N3CCC(C(C)(C)O)CC3)c12 [Compound 304, 1-(4-fluorophenyl)-4-[4-(2-hydroxypropan-2-yl)piperidin-1-yl]-N-(methanesulfonyl)-3-(propan-2-yl)-1H-pyrazolo[3,4-b]pyridine-6-carboxamide]	–	194.54	308.2	203	507	56.1
COCC1CCN(c2cc(C(=O)NS(C)(=O)=O)nc3c2c(C2CCC2)nn3-c2ccc(F)cc2)CC1 [Compound 316, 3-cyclobutyl-1-(4-fluorophenyl)-N-(methanesulfonyl)-4-[4-(methoxymethyl)piperidin-1-yl]-1H-pyrazolo[3,4-b]pyridine-6-carboxamide]	45	452.88	380.5	183	555.55	24.4
CC(C)(O)C1CCN(c2cc(C(=O)NS(C)(=O)=O)nc3c2c(C2CCC2)nn3-c2ccccc2)CC1 [Compound 317, 3-cyclobutyl-4-[4-(2-hydroxypropan-2-yl)piperidin-1-yl]-N-(methanesulfonyl)-1-phenyl-1H-pyrazolo[3,4-b]pyridine-6-carboxamide]	24	311.08	269.6	93.5	450.35	48.8
CS(=O)(=O)NC(=O)c1cc(OCC2CCOCC2)c2c(C3CCC3)nn(-c3ccc(F)cc3)c2n1 [Compound 318, 3-cyclobutyl-1-(4-fluorophenyl)-N-(methanesulfonyl)-4-[(oxan-4-yl)methoxy]-1H-pyrazolo[3,4-b]pyridine-6-carboxamide]	–	439.94	183.45	411	359.5	184
CC(C)c1nn(-c2ccc(F)cc2)c2nc(C(=O)NS(C)(=O)=O)cc(N3CCC(C4CCN(C)CC4)CC3)c12 [Compound 320, 1-(4-fluorophenyl)-N-(methanesulfonyl)-4-(1'-methyl[4,4'-bipiperidin]-1-yl)-3-(propan-2-yl)-1H-pyrazolo[3,4-b]pyridine-6-carboxamide]	–	215.3	376.35	309	590.6	82.7
COC(=O)N1CCC(COc2cc(C(=O)NS(C)(=O)=O)nc3c2c(C(C)C)nn3-c2ccc(F)cc2)CC1 [Compound 322, methyl 4-({[1-(4-fluorophenyl)-6-[(methanesulfonyl)carbamoyl]-3-(propan-2-yl)-1H-pyrazolo[3,4-b]pyridin-4-yl]oxy}methyl)piperidine-1-carboxylate]	–	440.86	158.25	128	342.75	61.4
CN1CCCCC1CCOc1cc(C(=O)NS(C)(=O)=O)nc2c1c(C1CCC1)nn2-c1ccccc1 (stereo not drawn) [Compound 323, 3-cyclobutyl-N-(methanesulfonyl)-4-[2-(1-methylpiperidin-2-yl)ethoxy]-1-phenyl-1H-pyrazolo[3,4-b]pyridine-6-carboxamide]	–	217.91	144.6	1370	292.85	372
CC(C)N(CCOc1cc(C(=O)NS(C)(=O)=O)nc2c1c(C1CCC1)nn2-c1ccccc1)C1COC1 [Compound 325, 3-cyclobutyl-N-(methanesulfonyl)-4-{2-[(oxetan-3-yl)(propan-2-yl)amino]ethoxy}-1-phenyl-1H-pyrazolo[3,4-b]pyridine-6-carboxamide]	–	317.57	151.4	335	309.8	153
